This data set in a line: gradient 5% acetonitrile 3 min, to 50% in 2 min, to 85% in 15 min, held 3 min, 100 µL/min. As to conditions: column: Zorbax Extend-C18 2.1 x 50 mm; eluents: water / acetonitrile, 0.1% formic acid. In a few lines:
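Each retention time is based on an adduct peak selected computationally and verified by manual inspection. Measurements used HPLC–quadrupole time-of-flight mass spectrometry in positive and negative ionization mode on mixtures of ~100 pure standards. Chromatography ran on a Zorbax Extend-C18 column (2.1 × 50 mm, 1.8 μm) at 100 μL/min with water and acetonitrile, each containing 0.1% formic acid, and dead and dwell volumes of 40 μL and 900 μL.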
Consider `CN1CCc2cccc3c2C1Cc1ccc(O)c(O)c1-3` (stereo unspecified), for which the RP-LC retention time turned out to be 606 s.
In the case of `c1ccc(-c2nnc(-c3cccnc3)o2)cc1`, the RP-LC retention time was 666 s.
Then `COCC(=O)Nc1nc(-c2ccc3c(c2)NC(=O)C(C)O3)c(C)s1` (stereo unspecified), with 720 s.
Then `Cc1ccc(Cl)cc1NC(=O)Cn1c(=O)cnc2cc(C(=O)NC3CC3)ccc21`, with 674 s; and `CNC(=O)C1CCCN(c2nc3ncn(CC(=O)NCc4ccccc4)c(=O)c3s2)C1` (stereo unspecified), with 620 s; and `O=C(c1nnn(Cc2ccc(Cl)cc2)c1-n1cccc1)N1CCCC1`, with 915 s.
Turning to `CCn1cc(Br)c(C(=O)Nc2ccc(C(C)=O)cc2)n1`, the RP-LC retention time was 829 s.
Then `CN1CCC(OC(c2ccccc2)c2ccccc2)CC1`, with 760 s.
Under `CCCn1nc(CNC(=O)CNC(C)=O)c2ccccc21` stands 632 s.
Then `O=c1c2cnn(Cc3ccccc3F)c2ncn1Cc1cccc(C(F)(F)F)c1`, with 928 s.
For `CC1CCCCN1C(=O)CSc1nc(-c2ccccc2)no1` (stereo unspecified), the RP-LC retention time worked out at 1070 s.
In the case of `COCc1cc(=O)n(CC(=O)Nc2cccc(C)c2)c(N)n1`, the RP-LC retention time worked out at 622 s.
Turning to `CC(=O)N1CCc2cc(N3CC(C(=O)NC4CCCCCC4)CC3=O)ccc21` (stereo unspecified), the RP-LC retention time amounted to 723 s.
Under `CCNC(=O)C1CCCN(c2nc3ncn(CC(=O)Nc4ccc(OCC)cc4)c(=O)c3s2)C1` (stereo unspecified) stands 688 s.
For `CC1(C)Cc2c(C#N)c(N3CCN(C(=O)c4ccc([N+](=O)[O-])cc4)CC3)nc(-c3ccccc3)c2CO1`, the RP-LC retention time turned out to be 1140 s.
For the molecule `COC(=O)c1cc(S(=O)(=O)N2CCCC2C(=O)Nc2cc(C)ccc2C)cn1C` (stereo unspecified), the RP-LC retention time was determined as 901 s.
`CC(=O)N1c2ccccc2CC1c1nc(C2CC2)no1` (stereo unspecified) returned an RP-LC retention time of 820 s.
Take `Cc1csc(C(=O)Nc2ccc(CC(=O)N3CCC(O)CC3)cc2)c1`: the RP-LC retention time worked out at 635 s.
For the molecule `O=C([C@@H]1CC(F)(F)CN1C(=O)CCn1c(=O)oc2ccccc21)N1CCCC1`, the RP-LC retention time is 718 s.
In turn, `CC(=O)N1CCc2c(sc(NC(=O)C3(c4ccc(Cl)cc4)CCCC3)c2C#N)C1` registered an RP-LC retention time of 946 s.
`Cc1ccc(NC(=O)NCC2CCOCC2)cc1Cl`: the RP-LC retention time worked out at 773 s.
Then `Cc1cccc(-c2noc(CSc3nc4cc5c(cc4c(=O)n3Cc3ccccc3)OCO5)n2)c1`, with 1330 s; and `CN(CCc1noc(COc2ccccc2)n1)C(=O)Nc1ccc(F)c(Cl)c1`, with 966 s; and `CCc1nnc(C2CN(C)CC23CCN(S(=O)(=O)c2ccccc2C)CC3)o1` (stereo unspecified), with 627 s.
Molecule `COc1cccc(NC(=O)Cn2nc3c(Oc4ccccc4C)nccn3c2=O)c1` came in with an RP-LC retention time of 866 s.
`COCCN(CC1(C)CCOCC1)C(=O)c1ccc(Cl)cc1`: the RP-LC retention time came out at 838 s.
The molecule `CCOc1nc2ccccc2nc1N1CCCC(C(=O)NC(C)c2ccccc2)C1` (stereo unspecified) had an RP-LC retention time of 1120 s.
As for `O=C(Nc1ncc(SCCN2CCCC2)s1)[C@]1(c2ccc(S(=O)(=O)C3CC3)cc2)C[C@H]1C1CCCCC1`, the RP-LC retention time was 854 s.
Under `COc1cccc(CNC(=O)C2=C3CCCN3c3ccccc3S2(=O)=O)c1` stands 811 s; under `COc1ccc(-c2[nH]ncc2CN2CC(F)(F)C[C@H]2CN2CCOCC2)cc1`, 590 s.
`COc1ccc(C(=O)NC(c2ccccc2)c2nnc(N3CCCC3)o2)cc1` (stereo unspecified) registered an RP-LC retention time of 756 s.
Turning to `Cc1ccc(CNC(=O)Cn2ncn3c(C)c(C(=O)NCc4ccc(C)cc4)c(C)c3c2=O)cc1`, the RP-LC retention time stood at 851 s.
Take `CCOc1cc(=O)n2c(c1C(=O)Nc1ccc(Cl)cc1F)CCCC2`: the RP-LC retention time came out at 806 s.
Under `Cc1nc(C)c(C(=O)N/N=C/c2ccc(N(CCCl)CCCl)cc2)s1` stands 942 s; under `CCOc1ccc(NC(=O)Cn2c(N3CCOCC3)nc(COC)cc2=O)cc1`, 967 s; under `O=c1ccc(-c2ccccc2)nn1CCc1nc(-c2cccc(Br)c2)no1`, 1090 s.
Consider `CCC(CN(C)Cc1ccccc1)NS(=O)(=O)c1ccc2[nH]c(=O)ccc2c1` (stereo unspecified), for which the RP-LC retention time is 600 s.
Regarding `CCn1ccc(C(=O)N2CCCC2c2nc(-c3ccc(F)cc3F)no2)n1` (stereo unspecified), the RP-LC retention time came to 827 s.
Then `Cn1cccc1C(=O)C(=O)Nc1ccc(Cl)c(C(F)(F)F)c1`, with 1130 s.
Regarding `O=C(C1=NNc2ccccc2S1(=O)=O)N1CCOCC1`, the RP-LC retention time was 618 s.
Take `CCCNc1cc(N2CCC(CCC(=O)N3CCCN(c4ncccn4)CC3)CC2)ncn1`: the RP-LC retention time is 573 s.
In turn, `Cc1cccc(-c2ncccc2CNS(=O)(=O)Cc2ccccc2)c1` showed an RP-LC retention time of 684 s.
Regarding `O=C(Cn1cccc1-c1nnc(C2CC2)o1)NCc1cccc(Br)c1`, the RP-LC retention time turned out to be 869 s.
`NS(=O)(=O)c1ccc(CCNCc2ccc(-c3cc(Cl)cc(Cl)c3)o2)cc1` showed an RP-LC retention time of 800 s.
For the molecule `CCOC(=O)C1=C(CN2CCc3ccccc3C2)NC(=O)NC1c1cccs1` (stereo unspecified), the RP-LC retention time is 655 s.
With `O=C(c1nc(-c2ccc(Cl)cc2)n2c1CCCCC2)N1CCN(c2ncccn2)CC1`, the RP-LC retention time came to 767 s.
On to `Cc1ccc(-c2nc3ncccn3c2Nc2cccc(Cl)c2C)cc1`, for which the RP-LC retention time was found to be 915 s.
The molecule `CCn1nc(CNC(=O)c2cncc(Br)c2)c2ccccc21` showed an RP-LC retention time of 820 s.
Then `COc1ccc(N2CC(c3noc(-c4ccccc4Cl)n3)CC2=O)cc1OC` (stereo unspecified), with 880 s.
With `Cc1ccc(C)c(NC(=O)C2CCCN(S(=O)(=O)c3c[nH]c(C(=O)N4CCCC4)c3)C2)c1` (stereo unspecified), the RP-LC retention time is 821 s.
The molecule `O=C(Cc1ccsc1)N1CCc2cc(-c3csc(C4CC4)n3)ccc21` had an RP-LC retention time of 1120 s.
With `O=C(CSc1nc(-c2ccccc2)c(NC(=O)c2cccs2)s1)NC1CC1`, the RP-LC retention time was determined as 782 s.
Regarding `O=C(CCC[C@@H]1[C@H]2CCCN3CCC[C@@H](CN1C(=O)c1cccnc1)[C@@H]23)N1CCN(c2ncccn2)CC1`, the RP-LC retention time is 578 s.
Molecule `O=C(C1CCCN(c2nc3cccnc3s2)C1)N1CCCCCC1` (stereo unspecified) had an RP-LC retention time of 795 s.
In the case of `O=C(C1=CN(c2ccc3c(c2)OCO3)c2cc(Cl)ccc2S1(=O)=O)N1CCCC1`, the RP-LC retention time was found to be 847 s.
Then `CC(C)NC(=O)CN1C(=O)CC(c2ccc(Br)s2)=Nc2ccccc21`, with 929 s.
Then `COc1ccc(SCC(=O)Nc2nnc(-c3ccno3)o2)cc1`, with 672 s; and `COC(=O)Cc1[nH]c(=O)[nH]c1C(=O)OC`, with 1100 s.
Then `CC1(c2nc(C3CC3)no2)CCCN(C(=O)c2n[nH]c3ccccc23)C1` (stereo unspecified), with 781 s; and `CCc1cc(C(=O)Nc2ccc(OC)c(Cl)c2)nc2ccnn12`, with 1040 s; and `Cc1ccc(NCCN(C)C)c2c(=O)c3cc(O)ccc3sc12`, with 736 s.
Consider `Cc1cc(N2CCN(C(=O)c3ccc(Cl)cc3)CC2)nc(N2CCOCC2)n1`, for which the RP-LC retention time stood at 639 s.
In turn, `O=C(CSc1ncccn1)N1CCC(Cc2ccccc2)CC1` showed an RP-LC retention time of 820 s.
Under `COc1ccc(C(C)NC(=O)c2c(C)sc3ccn(C)c(=O)c23)cc1` (stereo unspecified) stands 735 s; under `O=C(NC1CC1)C1CCN(c2nnc(-c3ccccc3)o2)CC1`, 657 s.
As to `Cc1nc2cc(-c3noc(-c4cccc(Cl)c4)n3)ccc2n(C)c1=O`, the RP-LC retention time came out at 1140 s.
On to `COc1cccc(F)c1-c1nc(C)c(C(=O)Nc2nc3ccccc3[nH]2)s1`, for which the RP-LC retention time was found to be 779 s.
Then `Cc1cc(N2CCN(c3ccccn3)CC2)n2nc(C(F)(F)F)c(-c3ccccc3)c2n1`, with 855 s; and `Cn1cc(CC(=O)Nc2ccc(F)cc2)c2cccnc21`, with 703 s.
`COC(=O)c1ccc(Cl)cc1NC(=O)c1cc2ccccc2o1` returned an RP-LC retention time of 1280 s.
On to `Cc1ccn2cc(-c3ccc(NC(=O)C4CCCCC4)cc3)nc2n1`, for which the RP-LC retention time is 657 s.
`Cc1ccc2cc(CCC(=O)N3CCN(C(=O)c4ccco4)CC3)c(=O)[nH]c2c1` displayed an RP-LC retention time of 655 s.
For `CCOc1ccc(C2Cn3nnc(-c4nc(C5CCCCC5)no4)c3CO2)cc1` (stereo unspecified), the RP-LC retention time was determined as 1290 s.
`O=C(NCc1ccccc1C(F)(F)F)C1CCCN(c2ncnc3nn(-c4ccc(F)cc4)cc23)C1` (stereo unspecified) gave an RP-LC retention time of 754 s.
In the case of `CCOC(=O)Cn1c(C2CC(=O)N(Cc3ccccc3)C2)nc2ccccc21` (stereo unspecified), the RP-LC retention time worked out at 749 s.
Take `CCn1cnc2cc(CNC(=O)Cc3ccsc3)ccc21`: the RP-LC retention time was 578 s.
`CCCN1C(=O)COc2ccc(-c3noc(-c4ccc(NC(C)=O)cc4)n3)cc21` came in with an RP-LC retention time of 948 s.
`Cc1ccc(NC(=O)C2CCCN(c3ncnc4c3nc3n4CCCCC3)C2)c(Cl)c1` (stereo unspecified) gave an RP-LC retention time of 855 s.
Under `CC(=O)N1CCc2nn(C)c(=O)n2CC1` stands 543 s; under `Cc1ccc(CNc2c(-c3ccc(N(C)C)cc3)nc3ncccn23)cc1`, 889 s.
`CC(O)(CCc1ccccc1)CNC(=O)C(=O)NCCC1=CCCCC1` (stereo unspecified) displayed an RP-LC retention time of 936 s.

These data come from the METLIN SMRT retention time set (Domingo-Almenara et al. 2019).
